This is an account of results in patent publication US20210170033A1, “NOVEL CONJUGATES OF A PHARMACEUTICAL AGENT AND A MOIETY CAPABLE OF BINDING TO A GLUCOSE SENSING PROTEIN” (SANOFI, priority 2017, published 2021).

Structures are written as SMILES. Like-named read-outs stand apart in the source and are kept apart here.

The subject of assay [1] is A2780 cells. Kind of assay: Deoxy-glucose uptake assay in A2780 cells (14C 2-deoxy-D-glucose transport). In kind it is cell-based. Particulars: Homo sapiens, 20 min; inhibition of 14C 2-deoxy-D-glucose transport into A2780 cells; 20 min compound incubation; read-out: IC50. The method in brief:
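Radiolabelled 2-deoxy-D-glucose transport over 20 min was scintillation-counted in A2780 cells, grown 48 h, after 20 min compound exposure in KRB. Untreated cells gave the 100% reference, with Cytochalasin B defining background. IC50 values were regressed from triplicate means across 7 or 14 concentrations.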

Assay [2] concerns A2780 Human Carcinoma Cells. Kind of assay: Glucose displacement assay (ATP measurement, CellTiter-Glo). Particulars: ATP measurement in A2780 cells, 0.5 μM rotenone. In kind it is cell-based. How it is done:
2. Glucose Displacement Assay (ATP Measurement)
30,000 A2780 Human Carcinoma Cells are seeded per well in a Greiner 96-well plate. Cells are expanded and cultured in RPMI 1640 medium+GlutaMAX® with 10% FCS and 11 mM glucose, at 37° C. with 5% CO2. After 44 h, culture media is changed and washed once with PBS to starvation media consisting of RPMI 1640 medium with 1% FCS without glucose for 2 hours. Cells are then washed with KRB buffer, followed by incubation for 20 min at 37° C. of the treatment mix consisting of 60 μL KRB buffer/well and 10 μL of compound or DMSO 10×. 10 μl of rotenone is added to the mix to a final concentration of 0.5 μM. Cell plates are left for 2 min at room temperature. 20 μL of different glucose concentrations are added to the mix—typically 0.1 to 10 mM range—.
Cells are incubated for another 15 min at 37° C., before measuring ATP with the CellTiter-Glo® Assay, under manufacturer's guidance, but without the equilibration step at room temperature for 30 min. In brief, 100 μl of Cell-Titer-Glo® Reagent is added to the wells containing already 100 μl of the previous reaction mix. Plates are mixed for 2 min at 800 rpm, followed by incubation at room temperature for 10 min to stabilize the luminescent signal. Luminescence is then recorded with the Tekan Ultra Evolution reader.
A general note: Cellular ATP, detected with luciferase, serves as a proxy for viable cell number.

[3] abbreviates: 1 mM glucose, read-out: IC50 [μM] at 1 mM glucose.
[4] abbreviates: 10 mM glucose, read-out: IC50 [μM] at 10 mM glucose.

The term IC50 denotes the concentration that inhibits the measured activity by half. Consider `C#CCCCn1c(COc2cc(C(=O)O[C@H]3[C@@H](OC)O[C@H](CO)[C@@H](O)[C@@H]3O)cc3c2cnn3C)nc2ccccc21` [Example 327], for which the IC50 in assay [1] is 9.4 µM; in assay [2] (setting [3]), 4.99 µM; in assay [2] (setting [4]), more than 33 µM.
The like results for `C#CCCCn1c(COc2c(Cl)cc(C(=O)O[C@H]3[C@@H](OC)O[C@H](CO)[C@@H](O)[C@@H]3O)c(C)c2Cl)nc2ccc(C)cc21` [Example 329] were, in that order, 0.01 µM, 0.2 µM and 0.94 µM.
The like results for `C#CCCCn1c(COc2c(Cl)cc(C(=O)O[C@H]3[C@@H](OC)O[C@H](CO)[C@@H](O)[C@@H]3O)c(C)c2Cl)nc2cc(C)ccc21` [Example 330] were, in that order, 0.3 µM, 0.92 µM and 3.52 µM.
The matching figures for `C#CCCC(=O)Nc1cc(COc2c(Cl)cc(C(=O)O[C@H]3[C@@H](OC)O[C@H](CO)[C@@H](O)[C@@H]3O)c(C)c2Cl)ccc1OC` [Example 331]: 1.1 µM, 0.36 µM and 1.79 µM.
As for `CO[C@H]1O[C@H](CO)[C@@H](O)[C@H](O)[C@H]1NC(=O)c1cc(Cl)c(OCc2nc3ccccc3n2CCCCCCNC(=O)[C@H](CC(C)C)N(C)C(=O)OC(C)(C)C)c(Cl)c1C` [Example 341], the results for the IC50 in assay [1], in assay [2] (setting [3]) and in assay [2] (setting [4]) were 1.6 µM, 0.72 µM and 2.61 µM, respectively.
The matching figures for `COC(=O)[C@H](CCC(=O)NCCCCCCn1c(COc2c(Cl)cc(C(=O)N[C@H]3[C@@H](OC)O[C@H](CO)[C@@H](O)[C@@H]3O)c(C)c2Cl)nc2ccccc21)NC(=O)OC(C)(C)C` [Example 342]: 34.2 µM, 2.18 µM and more than 100 µM.
The like results for `CO[C@H]1O[C@H](CO)[C@@H](O)[C@H](O)[C@H]1OC(=O)c1cc(Cl)c(OCc2cccc(CNC(=O)CCC(=O)OC(C)(C)C)c2)c(Cl)c1C` [Example 344] were, in that order, 1 µM, 1.11 µM and 8.59 µM.
The like results for `CO[C@H]1O[C@H](CO)[C@@H](O)[C@H](O)[C@H]1OC(=O)c1cc(Cl)c(OCc2cccc(NCCCC(=O)OC(C)(C)C)c2)c(Cl)c1C` [Example 345] were, in that order, 12.4 µM, 2.41 µM and 6.59 µM.
For the compound `CO[C@H]1O[C@H](CO)[C@@H](O)[C@H](O)[C@H]1OC(=O)c1cc(Cl)c(OCc2cccc(NC(=O)CCC(=O)OC(C)(C)C)c2)c(Cl)c1C` [Example 347], the IC50 in assay [1] stood at 2.8 µM; in assay [2] (setting [3]), 0.86 µM; in assay [2] (setting [4]), 5.28 µM.
The like results for `CO[C@H]1O[C@H](CO)[C@@H](O)[C@H](O)[C@H]1OC(=O)c1cc(Cl)c(OCc2cccc(CNC(=O)CCCC(=O)OC(C)(C)C)c2)c(Cl)c1C` [Example 349] were, in that order, 2.5 µM, 1.46 µM and 7.76 µM.
The like results for `CO[C@H]1O[C@H](CO)[C@@H](O)[C@H](O)[C@H]1OC(=O)c1cc(Cl)c(OCc2cccc(NC(=O)CCCC(=O)OC(C)(C)C)c2)c(Cl)c1C` [Example 351] were, in that order, 0.8 µM, 0.55 µM and 1.97 µM.
On to `COC(=O)/C=C/c1ccc(COc2cc(OC)c(C(=O)O[C@H]3[C@@H](OC)O[C@H](CO)[C@@H](O)[C@@H]3O)cc2Cl)cc1` [Example 352], for which the IC50 in assay [1] is 0.04 µM; in assay [2] (setting [3]) it was 0.26 µM; in assay [2] (setting [4]), 1.05 µM.
The like results for `COc1cc(OCc2cn3c(C)cccc3n2)c(Cl)cc1C(=O)O[C@H]1[C@@H](OC)O[C@H](CO)[C@@H](O)[C@@H]1O` [Example 353] were, in that order, 0.1 µM, 1.5 µM and 6.07 µM.
Regarding `COC(=O)CCc1ccc(COc2cc(OC)c(C(=O)N[C@H]3[C@@H](OC)O[C@H](CO)[C@@H](O)[C@@H]3O)cc2Cl)cc1` [Example 356], the IC50 was 2.7 µM in assay [1], 3.68 µM in assay [2] (setting [3]) and 12.1 µM in assay [2] (setting [4]).
With `COc1cc(OCc2cccc(CNC(=O)OC(C)(C)C)c2)c(Cl)cc1C(=O)O[C@H]1[C@@H](OC)O[C@H](CO)[C@@H](O)[C@@H]1O` [Example 361], the IC50 in assay [1] was found to be 0.8 µM; in assay [2] (setting [3]) it was 1.93 µM; in assay [2] (setting [4]) it was 8.11 µM.
The like results for `COc1cc(OCc2cccc(NC(=O)CCCC(=O)OC(C)(C)C)c2)c(Cl)cc1C(=O)O[C@@H]1[C@@H](O)[C@@H](OC)O[C@H](CO)[C@H]1O` [Example 364] were, in that order, 4.4 µM, 3.88 µM and 12.3 µM.
In the case of `C#CCCCCCCCn1c(COc2c(Cl)cc(C(=O)O[C@H]3[C@@H](OC)O[C@H](CO)[C@@H](O)[C@@H]3O)c(C)c2Cl)nc2ccccc21` [Example 371], the IC50 in assay [1] was 0.4 µM; in assay [2] (setting [3]), 0.86 µM; in assay [2] (setting [4]), 1.44 µM.
The matching figures for `COc1cc(OCc2cccc(CNC(=O)CCC(=O)OC(C)(C)C)c2)c(Cl)cc1C(=O)O[C@H]1[C@@H](OC)O[C@H](CO)[C@@H](O)[C@@H]1O` [Example 372]: 2.4 µM, 2.89 µM and 15 µM.
The matching figures for `COc1cc(OCc2cccc(CNC(=O)CCCC(=O)OC(C)(C)C)c2)c(Cl)cc1C(=O)O[C@H]1[C@@H](OC)O[C@H](CO)[C@@H](O)[C@@H]1O` [Example 373]: 4.1 µM, 6.44 µM and 26.7 µM.
The like results for `COc1cc(OCc2cccc(NC(=O)CCC(=O)OC(C)(C)C)c2)c(Cl)cc1C(=O)O[C@H]1[C@@H](OC)O[C@H](CO)[C@@H](O)[C@@H]1O` [Example 375] were, in that order, 1.6 µM, 1.41 µM and 7.19 µM.
Turning to `COc1cc(OCc2cccc(NC(=O)CCCC(=O)OC(C)(C)C)c2)c(Cl)cc1C(=O)O[C@H]1[C@@H](OC)O[C@H](CO)[C@@H](O)[C@@H]1O` [Example 376], the IC50 in assay [1] came to 0.8 µM; in assay [2] (setting [3]), 1.02 µM; in assay [2] (setting [4]), 3.73 µM.
For the compound `COC(=O)[C@H](CCC(=O)Nc1cccc(COc2cc(OC)c(C(=O)O[C@H]3[C@@H](OC)O[C@H](CO)[C@@H](O)[C@@H]3O)cc2Cl)c1)NC(=O)OC(C)(C)C` [Example 377], the IC50 in assay [1] turned out to be 2.4 µM; in assay [2] (setting [3]), 1.34 µM; in assay [2] (setting [4]) it was 7.83 µM.
The like results for `COc1cc(OCc2cccc(OCCCCCC(=O)O)c2)c(Cl)cc1C(=O)O[C@H]1[C@@H](OC)O[C@H](CO)[C@@H](O)[C@@H]1O` [Example 379] were, in that order, 8.3 µM, 5.39 µM and 24.1 µM.
The like results for `COc1cc(OCc2cccc(CNC(=O)CCCCCCC(=O)OC(C)(C)C)c2)c(Cl)cc1C(=O)O[C@H]1[C@@H](OC)O[C@H](CO)[C@@H](O)[C@@H]1O` [Example 401] were, in that order, 0.6 µM, 2.95 µM and 7.81 µM.
The like results for `COc1cc(OCc2cccc(NC(=O)CCCCCCC(=O)OC(C)(C)C)c2)c(Cl)cc1C(=O)O[C@H]1[C@@H](OC)O[C@H](CO)[C@@H](O)[C@@H]1O` [Example 402] were, in that order, 0.3 µM, 3.24 µM and 7.35 µM.
In the case of `COc1cc(OCc2cccc(NC(=O)CCCC(=O)O)c2)c(Cl)cc1C(=O)O[C@H]1[C@@H](OC)O[C@H](CO)[C@@H](O)[C@@H]1O` [Example 407], the IC50 was 8.6 µM in assay [1], 16.3 µM in assay [2] (setting [3]) and more than 33 µM in assay [2] (setting [4]).
For the compound `COc1cc(OCc2cccc(NC(=O)CCCCCCC(=O)O)c2)c(Cl)cc1C(=O)O[C@H]1[C@@H](OC)O[C@H](CO)[C@@H](O)[C@@H]1O` [Example 409], the IC50 was determined as 4.1 µM in assay [1], 7.63 µM in assay [2] (setting [3]) and 14.5 µM in assay [2] (setting [4]).
Turning to `COC(=O)[C@H](CCCCNC(=O)CCCC(=O)Nc1cccc(COc2cc(OC)c(C(=O)O[C@H]3[C@@H](OC)O[C@H](CO)[C@@H](O)[C@@H]3O)cc2Cl)c1)NC(=O)OC(C)(C)C` [Example 412], the IC50 in assay [1] came to 2.3 µM; in assay [2] (setting [3]) it was 6.02 µM; in assay [2] (setting [4]) it was 13.9 µM.
The matching figures for `COC(=O)[C@H](CCCCNC(=O)CCCCCCC(=O)NCc1cccc(COc2cc(OC)c(C(=O)O[C@H]3[C@@H](OC)O[C@H](CO)[C@@H](O)[C@@H]3O)cc2Cl)c1)NC(=O)OC(C)(C)C` [Example 413]: 5.1 µM, 10.3 µM and 30.9 µM.
Regarding `COc1cc(OCc2cccc(CNC(=O)OC(C)(C)C)c2)c(Cl)cc1C(=O)N[C@H]1[C@H](OC)O[C@H](CO)[C@@H](O)[C@@H]1O` [Example 419], the IC50 in assay [1] stood at 1.1 µM; in assay [2] (setting [3]), 4.39 µM; in assay [2] (setting [4]) it was 11.6 µM.
The like results for `COc1cc(OCc2cccc(CNC(=O)CCC(=O)OC(C)(C)C)c2)c(Cl)cc1C(=O)N[C@H]1[C@@H](OC)O[C@H](CO)[C@@H](O)[C@@H]1O` [Example 424] were, in that order, 3.3 µM, 9.79 µM and 25.4 µM.
